{
  "source": "ChEMBL document CHEMBL5137001",
  "about": "“Examination of multiple Trypanosoma cruzi targets in a new drug discovery approach for Chagas disease” (Bioorg Med Chem, 2022)",
  "key": {"[1]": {"molecular_target": "T1, Triosephosphate isomerase, glycosomal (Trypanosoma cruzi, UniProt P52270)", "T1 sequence (P52270 whole entry)": "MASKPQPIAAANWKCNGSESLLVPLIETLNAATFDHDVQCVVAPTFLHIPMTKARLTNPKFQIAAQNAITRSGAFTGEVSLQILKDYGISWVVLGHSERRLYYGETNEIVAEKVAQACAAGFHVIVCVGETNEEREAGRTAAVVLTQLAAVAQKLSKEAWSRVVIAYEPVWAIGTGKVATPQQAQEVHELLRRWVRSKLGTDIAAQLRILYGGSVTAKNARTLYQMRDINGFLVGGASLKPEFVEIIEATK", "assay": "Inhibition of recombinant Trypanosoma cruzi TIM using glyceraldehyde 3-phosphate as substrate"}, "[2]": {"molecular_target": "T2, Bifunctional dihydrofolate reductase-thymidylate synthase (Trypanosoma cruzi, UniProt Q27793)", "T2 sequence (Q27793 whole entry)": "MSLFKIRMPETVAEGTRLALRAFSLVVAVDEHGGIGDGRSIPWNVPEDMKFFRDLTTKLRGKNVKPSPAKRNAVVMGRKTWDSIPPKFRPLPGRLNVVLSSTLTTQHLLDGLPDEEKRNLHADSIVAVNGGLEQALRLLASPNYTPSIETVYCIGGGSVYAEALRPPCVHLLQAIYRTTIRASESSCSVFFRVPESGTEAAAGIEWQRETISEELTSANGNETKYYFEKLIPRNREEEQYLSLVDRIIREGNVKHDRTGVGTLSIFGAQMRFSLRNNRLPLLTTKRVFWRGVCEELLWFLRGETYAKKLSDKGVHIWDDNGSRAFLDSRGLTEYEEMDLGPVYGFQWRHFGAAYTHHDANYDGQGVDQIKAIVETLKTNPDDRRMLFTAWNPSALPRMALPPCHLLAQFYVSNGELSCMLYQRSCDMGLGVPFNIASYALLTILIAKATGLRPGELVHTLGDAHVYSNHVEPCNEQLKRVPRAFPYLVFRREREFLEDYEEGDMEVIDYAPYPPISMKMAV", "assay": "Inhibition of recombinant Trypanosoma cruzi DHFR-TS assessed as inhibition constant"}, "[3]": {"molecular_target": "T1, Triosephosphate isomerase, glycosomal", "assay": "Inhibition of Trypanosoma cruzi TIM expressed in Escherichia coli using glyceraldehyde 3-phosphate as substrate preincubated for 2 hrs in presence of NADH/alphaGDPH by spectrophotometry"}, "[4]": {"molecular_target": "T1, Triosephosphate isomerase, glycosomal", "assay": "Inhibition of Trypanosoma cruzi TIM"}, "[5]": {"molecular_target": "T1, Triosephosphate isomerase, glycosomal", "assay": "Inhibition of Trypanosoma cruzi TIM expressed in Escherichia coli using glyceraldehyde 3-phosphate as substrate in presence of NADH/alphaGDPH measured after 2 hrs by spectrophotometry"}, "[6]": {"molecular_target": "T3, Cruzipain (Trypanosoma cruzi, UniProt P25779)", "T3 sequence (P25779 whole entry)": "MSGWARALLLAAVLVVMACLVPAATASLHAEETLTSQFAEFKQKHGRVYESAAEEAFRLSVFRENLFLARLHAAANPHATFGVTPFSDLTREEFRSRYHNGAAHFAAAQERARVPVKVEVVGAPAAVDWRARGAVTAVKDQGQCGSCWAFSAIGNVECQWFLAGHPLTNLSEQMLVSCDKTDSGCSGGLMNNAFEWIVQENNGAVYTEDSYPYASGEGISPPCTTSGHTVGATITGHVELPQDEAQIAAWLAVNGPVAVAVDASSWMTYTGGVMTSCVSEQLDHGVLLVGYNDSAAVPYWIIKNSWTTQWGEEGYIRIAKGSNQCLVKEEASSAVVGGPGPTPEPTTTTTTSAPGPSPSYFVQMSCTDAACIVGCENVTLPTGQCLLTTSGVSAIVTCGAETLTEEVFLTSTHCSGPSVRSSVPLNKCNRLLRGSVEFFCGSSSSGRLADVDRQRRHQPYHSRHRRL", "assay": "Inhibition of Trypanosoma cruzi Cruzaine using Z-Phe-Arg-AMC as substrate preincubated for 15 mins measured for 10 mins by […]"}, "[7]": {"molecular_target": "T3, Cruzipain", "assay": "Inhibition of Trypanosoma cruzi Cruzaine"}, "[8]": {"assay": "Inhibition of Trypanosoma cruzi DHODH assessed as inhibition constant measured for 5 mins by spectrophotometry"}, "[9]": {"molecular_target": "Sterol 14-alpha demethylase (Trypanosoma cruzi (strain CL Brener), UniProt Q7Z1V1)", "sequence (Q7Z1V1 whole entry)": "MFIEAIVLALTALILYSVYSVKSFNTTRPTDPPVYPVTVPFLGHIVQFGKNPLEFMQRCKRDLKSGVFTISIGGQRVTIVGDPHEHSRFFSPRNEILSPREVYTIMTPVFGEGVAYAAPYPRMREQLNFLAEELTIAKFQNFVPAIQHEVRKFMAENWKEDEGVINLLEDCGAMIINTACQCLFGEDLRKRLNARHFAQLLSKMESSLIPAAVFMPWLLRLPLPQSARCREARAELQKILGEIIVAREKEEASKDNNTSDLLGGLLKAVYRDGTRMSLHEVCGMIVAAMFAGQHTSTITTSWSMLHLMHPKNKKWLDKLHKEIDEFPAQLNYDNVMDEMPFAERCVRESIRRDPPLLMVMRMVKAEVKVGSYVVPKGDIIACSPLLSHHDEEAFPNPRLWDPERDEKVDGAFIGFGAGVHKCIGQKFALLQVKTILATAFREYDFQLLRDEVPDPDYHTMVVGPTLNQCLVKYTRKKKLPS", "assay": "Displacement of [3H]-Eubricol from C-terminal His-tagged full-length Trypanosoma cruzi Tulahuen strain CYP51 expressed in Escherichia coli HMS174(DE3) assessed as dissociation constant preincubated for 5 mins measured after 60 mins by enzymatic assay"}, "[10]": {"molecular_target": "T4, Trypanothione reductase (Trypanosoma cruzi, UniProt P28593)", "T4 sequence (P28593 whole entry)": "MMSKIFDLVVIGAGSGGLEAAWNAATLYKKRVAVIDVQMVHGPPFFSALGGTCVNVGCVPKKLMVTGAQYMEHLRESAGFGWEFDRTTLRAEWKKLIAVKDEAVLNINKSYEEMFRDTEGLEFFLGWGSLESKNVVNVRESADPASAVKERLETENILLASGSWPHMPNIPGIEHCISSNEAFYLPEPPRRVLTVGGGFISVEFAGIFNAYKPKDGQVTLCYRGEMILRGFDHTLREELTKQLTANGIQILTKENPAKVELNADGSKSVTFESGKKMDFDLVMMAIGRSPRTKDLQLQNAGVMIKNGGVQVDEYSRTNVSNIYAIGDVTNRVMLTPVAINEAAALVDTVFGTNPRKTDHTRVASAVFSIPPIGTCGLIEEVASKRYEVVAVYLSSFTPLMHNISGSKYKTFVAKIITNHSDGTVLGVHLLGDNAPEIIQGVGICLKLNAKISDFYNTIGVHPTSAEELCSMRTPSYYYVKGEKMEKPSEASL", "assay": "Inhibition of Trypanosoma cruzi TR assessed as inhibition constant"}, "[11]": {"molecular_target": "T4, Trypanothione reductase", "assay": "Inhibition of Trypanosoma cruzi TR assessed as inhibition constant in presence of NADPH"}, "[12]": {"molecular_target": "T3, Cruzipain", "assay": "Inhibition of Cruzaine derived from epimastigotes of Trypanosoma cruzi Tul2 strain using Z-FR-AMC as substrate assessed as release of 7-amino-4-methylcoumarin by fluorimetry"}, "[13]": {"molecular_target": "T2, Bifunctional dihydrofolate reductase-thymidylate synthase", "assay": "Inhibition of Trypanosoma cruzi DHFR-TS assessed as inhibition constant using DHF as substrate in presence of NADPH by spectrophotometry"}, "[14]": {"molecular_target": "T2, Bifunctional dihydrofolate reductase-thymidylate synthase", "assay": "Inhibition of Trypanosoma cruzi DHFR-TS in presence of NADPH by spectrophotometry"}, "[15]": {"assay": "Inhibition of Trypanosoma cruzi PTR1 using folic acid as substrate in presence of NADPH by spectrophotometry"}},
  "data": [
    {"smiles": "O=S(=O)(O)CCCSc1nc2ccccc2s1", "values": [
      {"measurement": "IC50", "setting": "[1]", "value": 33, "unit": "µM"}
    ]},
    {"smiles": "CC(C)Oc1cccc(Cc2cnc(N)nc2N)c1", "values": [
      {"measurement": "Ki", "setting": "[2]", "value": 23, "unit": "nM"}
    ]},
    {"smiles": "Cc1ccc2nc(-c3ccc4nc(-c5ccc(N)cc5)sc4c3)sc2c1S(=O)(=O)O", "values": [
      {"measurement": "IC50", "setting": "[1]", "value": 8, "unit": "µM"}
    ]},
    {"smiles": "[O-][NH+]1c2ccc(O)cc2[NH+]([O-])c2cc(Cl)c(Cl)cc21", "note": "(configuration not stated)", "values": [
      {"measurement": "IC50", "setting": "[3]", "value": 26, "unit": "µM"}
    ]},
    {"smiles": "O=C(/C=C/C=C/c1ccco1)/C=C/C=C/c1ccco1", "values": [
      {"measurement": "IC50", "setting": "[4]", "value": 3, "unit": "µM"}
    ]},
    {"smiles": "COc1ccc(-c2c/c(=[S+]/CC(C)=O)ss2)cc1", "values": [
      {"measurement": "IC50", "setting": "[5]", "value": 11, "unit": "µM"}
    ]},
    {"smiles": "O=C1/C(=C/C=C/c2ccco2)CCC/C1=C\\C=C\\c1ccco1", "values": [
      {"measurement": "IC50", "setting": "[6]", "value": 37, "unit": "µM"}
    ]},
    {"smiles": "CCOC(=O)/C=C/C(=O)[C@H](CC(C)C)NC(=O)[C@@H](CC(=O)c1ccccc1)Cc1ccccc1", "values": [
      {"measurement": "IC50", "setting": "[7]", "value": 20, "unit": "µM"}
    ]},
    {"smiles": "O=C1NC(=O)C(CCc2ccc3cc(C(=O)O)ccc3c2)C(C(=O)O)N1", "note": "(configuration not stated)", "values": [
      {"measurement": "Ki", "setting": "[8]", "value": 20, "unit": "nM"}
    ]},
    {"smiles": "OC(Cn1cnnn1)(c1ccc(F)cc1F)C(F)(F)c1ccc(-c2ccc(OCC(F)(F)F)cn2)cn1", "note": "(configuration not stated)", "values": [
      {"measurement": "Kd", "setting": "[9]", "value": 24, "unit": "nM"}
    ]},
    {"smiles": "O=C(CSc1nc2ccccc2[nH]1)Nc1ncc([N+](=O)[O-])s1", "values": [
      {"measurement": "IC50", "setting": "[4]", "value": 3, "unit": "µM"}
    ]},
    {"smiles": "Nc1ncc(Cc2ccc(Oc3ccccc3)cc2)c(N)n1", "values": [
      {"measurement": "Ki", "setting": "[2]", "value": 30, "unit": "nM"}
    ]},
    {"smiles": "CC(C)CC(=O)c1ccc2c(c1)[n+]([O-])c(C(=O)C(C)C)c(C(F)(F)F)[n+]2[O-]", "values": [
      {"measurement": "Ki", "setting": "[10]", "value": 19, "unit": "µM"}
    ]},
    {"smiles": "CN1CCN(CCn2ccc3cc(-c4ncc(C5(N6CCCC6)CCCCC5)s4)ccc32)CC1", "values": [
      {"measurement": "Ki", "setting": "[10]", "value": 3.8, "unit": "µM"}
    ]},
    {"smiles": "COc1ccc(NC(=O)COC(=O)C(CC(C)C)N2C(=O)C(Cl)=C(Cl)C2=O)cc1", "note": "(configuration not stated)", "values": [
      {"measurement": "IC50", "setting": "[7]", "value": 0.6, "unit": "µM"}
    ]},
    {"smiles": "O=C1C(Br)=C(Oc2ccc3ccccc3c2)C(=O)c2ccccc21", "values": [
      {"measurement": "Ki", "setting": "[11]", "value": 1.1, "unit": "µM"}
    ]},
    {"smiles": "c1ccc(-c2sc(C3(N4CCCC4)CCCCC3)cc2-c2ccc3cc[nH]c3c2)cc1", "values": [
      {"measurement": "Ki", "setting": "[10]", "value": 10, "unit": "µM"}
    ]},
    {"smiles": "Cc1ccc(C)c(OC2=CC(=O)c3ccncc3C2=O)c1", "values": [
      {"measurement": "Ki", "setting": "[11]", "value": 6, "unit": "µM"}
    ]},
    {"smiles": "CC(C)CC(NC(=O)c1ccc(-c2ccccc2)o1)C(=O)NC1(C#N)CC1", "note": "(configuration not stated)", "values": [
      {"measurement": "IC50", "setting": "[12]", "value": 30.3, "unit": "µM"}
    ]},
    {"smiles": "COc1cc(NCc2ccc3nc(N)ncc3c2C)cc(OC)c1OC", "values": [
      {"measurement": "Ki", "setting": "[13]", "value": 6.6, "unit": "nM"}
    ]},
    {"smiles": "CN(Cc1cnc2nc(N)nc(N)c2n1)c1ccc(C(=O)N[C@@H](CCC(=O)O)C(=O)O)cc1", "note": "[METHOTREXATE]", "values": [
      {"measurement": "IC50", "setting": "[14]", "value": 110, "unit": "nM"},
      {"measurement": "IC50", "setting": "[15]", "value": 0.038, "unit": "nM"}
    ]}
  ]
}
